Results taken from patent US6331642A, “Vitamin D3 analogs” (Hoffmann-La Roche Inc., priority 2000, dated 2001).

Test system: LNCaP cells, MCF-7 cells and HL-60 cells
Assay: Clonogenic assay, three cell lines together
Type: cell-based
Protocol: Cell lines. The breast cancer cell line (MCF-7), prostate cancer cell line (LNCaP) and myeloid leukemia cell line (HL-60) were maintained as follows: MCF-7 cells were maintained in Dulbecco's Modified Eagle Media (DMEM) with 10% fetal calf serum (FCS); LNCaP and HL-60 were cultured in RPMI1640 with 10% FCS; All three cell lines were maintained in a 37° C. incubator containing 5% CO2.
Vitamin D3 Compounds. The vitamin D3 compounds were dissolved in absolute ethanol at 10^-3 M as stock solution, which were stored at -20° C. and protected from light. For in vitro use, compounds were diluted in DMEM or RPMI medium. For in vivo use, compounds were diluted with phosphate buffered saline (PBS). […]. Washed single-cell suspensions of cells were enumerated and plated into 24-well flat-bottomed plates with a total of […] cells/well in a volume of 400 μl/well. The feeder layer was prepared with agar that had been equilibrated at 42° C. Prior to this step, compounds were pipetted into wells. After incubation, the colonies were counted. All experiments were done at least three times using triplicate plates per experimental point.
Effect of Vitamin D3 analogs on Clonogenic Assay. […]

For `C=C1/C(=C/C=C2\CCC[C@]3(C)C([C@H](C)CCCC(C)(C)O)=CC[C@@H]23)C[C@@H](O)C[C@@H]1O` [1,25(OH)2-16-ene-5,6-trans-D3, 1,25-Dihydroxy-16-ene-5,6-trans-cholecalciferol], which “inhibition of clonal proliferation” value (10^-11 to 10^-7 M) is on record?
Its value is “effective in inhibition of clonal proliferation of the three cell lines in a dose-dependent manner”.

What about the “potency relative to 1,25(OH)2 D3 (fold more potent)” value (vs 1,25(OH)2 D3, about) of the same compound?
The value was 10-100 fold.
